The source of these data is patent EP4782453A1 (Beyang Therapeutics Co., Ltd., priority 2023, dated 2025).

SMILES strings stand for the structures.

Common to all, as to type: cell-based
Test [1] concerns MEIS1 gene expression. The test is described as follows: Inhibition of MEIS1 gene expression in human tumor cells (qRT-PCR), MV-4-11. As to conditions: MV4-11, MV-4-11 (carrying MLL-AF4), 48 hours of incubation, relative MEIS1 gene expression vs GAPDH, read-out: MV-4-11 MEISI EC50. From the text: (§1) Experimental Example 3: Evaluation of Inhibitory Activity of Compounds Against MEISI Gene Expression in Human Tumor Cells
(§2) The effect of test samples on MEIS1 gene expression in vitro cultured human leukemia cells MV-4-11 (carrying MLL-AF4), MOLM-13 (carrying MLL-AF9), and OCI-AML3 (carrying NPM1c) was studied.
(§3) • Human acute lymphoblastic leukemia cells MV-4-11, purchased from American Type Culture Collection, Catalog Number: CRL-9591; • Human acute myeloid leukemia cells MOLM-13, purchased from COBIOER BIOSCIENCES CO., LTD, Catalog Number: CBP60678; • Human acute myeloid leukemia cells OCI-AML3, purchased from COBIOER BIOSCIENCES CO., LTD, Catalog Number: CBP60817; • MEIS1 Primer/Probe, purchased from IDT, Catalog Number: 40831613; and • GAPDH Primer/Probe, purchased from IDT, Catalog Number: 22214836.
(§4) MV-4-11 cells were cultured in an IMDM medium containing 10% fetal bovine serum, or MOLM-13 and OCI-AML3 cells were cultured in an RPMI-1640 medium containing 20% fetal bovine serum, each supplemented with 100 U·mL^-1 penicillin and 100 µg·mL^-1 streptomycin. These cells were cultured at 37°C with 5% CO2. The suspensions of individual cell lines were prepared in their respective media and seeded into 48-well plates at a density of 100,000 cells/well. On the day of the experiment, a compound stock solution was diluted in a 6-fold gradient using DMSO. Each gradient-diluted stock solution was then further diluted 250-fold with a complete medium to prepare a series of working solutions at different concentrations. Next, 250 µL of working solution (containing the complete medium with a 2-fold serial concentration of the test compound or a positive control compound, or containing a control complete medium) was added to each well. After 48 hours of incubation, cells from the 48-well plate were collected into 1 mL centrifuge tubes, centrifuged at 1000 rpm for 5 minutes, and the complete medium was removed. Cells were washed twice with 1 mL PBS and centrifuged to remove PBS. Total RNA was extracted using the RNeasy Mini Kit (250) (QIAGEN, 74106). The threshold cycle (Ct) value for gene expression was determined using the HiScript II U+ One Step qRT-PCR Probe Kit (Vazyme) (Vazyme, Q223-01), with 3 replicates per sample. The prepared reaction mixture was placed in an ABI 7500 real-time PCR instrument, and the reaction proceeded following the procedures below. [formula]
(§5) Next, for the relative MEIS1 gene expression, the concentration (EC50) that inhibits 50% of relative MEIS1 gene expression was calculated using GraphPad Prism 8 software.
(In general: In qPCR the cycle at which signal appears reflects the starting amount.)

The test system of test [2] is MV-4-11 (carrying MLL-AF4). The test can be described thus: Inhibition of proliferation of human tumor cells (Alamar Blue, 7 days), MV-4-11. As to conditions: Homo sapiens, MV4-11, 168 h, MV-4-11 cells (carrying MLL-AF4), method calls the value GI50. The gist of the method:
(§6)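 Seven-day continuous compound exposure in duplicate wells, with 0.1% DMSO vehicle. Proliferation is quantified by Alamar Blue fluorescence and expressed as GI50, using Day 0 readings as the low reference.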

For test [3], the system named is MOLM-13 (carrying MLL-AF9). The test can be described thus: Inhibition of proliferation of human tumor cells (Alamar Blue, 7 days), MOLM-13. As to conditions: Homo sapiens, MOLM-13 cells (carrying MLL-AF9), method calls the value GI50. The gist of the method: as §6
(Alamar Blue is a resazurin reagent that responds to reducing activity.)

A further test has as its system KG-1a (wild-type MLL). The test is described as follows: Inhibition of proliferation of human tumor cells (Alamar Blue, 7 days), KG-1a control cell line. As to conditions: 168 h, KG-1a cells (wild-type MLL, control cell line), method calls the value GI50. A digest of the protocol:
as §6

Test [4] deals with MEIS1 gene expression. The test is described as follows: Inhibition of MEIS1 gene expression in human tumor cells (qRT-PCR), MOLM-13. As to conditions: MOLM-13 (carrying MLL-AF9), 48 hours of incubation, relative MEIS1 gene expression vs GAPDH.
Text: as §1, §2, §3, §4, §5

In the case of `CCN(C(=O)c1cc(F)ccc1-c1cc(C2(F)CN(C(=O)C3NC4CCC3CC4)C2)cn2c(C)ncc12)C(C)C` [Example 75, N-ethyl-5-fluoro-2-(6-{3-fluoro-1-[(1R,3S,4S)-2-azabicyclo[2.2.2]octan-3-carbonyl]azacyclobutan-3-yl}-3-methylimidazo[1,5-a]pyridin-8-yl)-N-(isopropyl) benzamide], the EC50 (as a rule, the concentration giving half of the maximal effect) in the test with MEIS1 gene expression [1] stood at 82 nM. The 50% inhibitory concentration (IC50) (usually the concentration at which inhibition is half-maximal) in test [2] was 25 nM; in test [3] (MOLM-13, 168 h) it was 78 nM; in the test on KG-1a (wild-type MLL), 20 µM.

Regarding `CCN(C(=O)c1cc(F)ccc1-c1cc(C2CCN(Cc3ccc(-c4cc(OC)c(OC)nn4)cc3)C2)cn2c(C)ncc12)C(C)C` (stereo not shown) [Example 83], the EC50 with MEIS1 gene expression [1] is 24 nM. Besides, the IC50 in test [2] came to 5.5 nM; in test [3] (168 h), 33 nM; in the test on KG-1a (wild-type MLL), 7.4 µM.

For the compound `CCS(=O)(=O)N[C@H]1CC[C@H](CN2CC(c3cc(-c4ccc(F)cc4C(=O)N4CCOC[C@H]4C)c4cnc(C)n4c3)C2)CC1` [Example 134, N-[(1r,4r)-4-{[3-(8-{4-fluoro-2-[(3R)-3-methylmorpholin-4-carbonyl]phenyl}-3-methylimidazo[1,5-a]pyridin-6-yl)azacyclobutan-1-yl]methyl}cyclohexyl]ethan-1-sulfonamide], the EC50 in the test with MEIS1 gene expression [4] came out at 53 nM; in the test with MEIS1 gene expression [1], 55 nM. In addition, the IC50 in test [2] was determined as 26 nM; in test [3] (168 h), 21 nM; in the test with KG-1a (wild-type MLL) it was 20 µM.

As to `CCN(C(=O)c1cc(F)ccc1-c1cc(C2CN(C[C@H]3CC[C@H](NS(=O)(=O)CC)CC3)C2)cn2c(C)nc(F)c12)C(C)C` [Example 137], the EC50 was found to be 9 nM with MEIS1 gene expression [4] and 16 nM in the test with MEIS1 gene expression [1]. Besides, the half-maximal inhibitory concentration (IC50) is 4.7 nM in test [2] and 10 nM in test [3] (168 h).

Take `CCS(=O)(=O)N[C@H]1CC[C@H](CN2CC(c3cc(-c4ccc(F)cc4C(=O)N(CC(F)F)C(C)C)c4cnc(C)n4c3)C2)CC1` [Example 138]: the EC50 turned out to be 8 nM in the test on MEIS1 gene expression [4] and 15 nM in the test with MEIS1 gene expression [1]. The IC50 worked out at 3 nM in test [2], 7.6 nM in test [3] (168 h) and 20 µM with KG-1a (wild-type MLL).

For the compound `COCCN(C)CCCC(C(C)C)N1CC(c2cc(-c3ccc(F)cc3C(=O)N(CC(F)F)C(C)C)c3c(F)nc(C)n3c2)C1` (stereo not shown) [Example 142, N-(2,2-difluoroethyl)-5-fluoro-2-[1-fluoro-6-(1-{6-[(2-methoxyethyl)(methyl)amino]-2-methylhexan-3-yl}azacyclobutan-3-yl)-3-methylimidazo[1,5-a]pyridin-8-yl]-N-(isopropyl)benzamide], the EC50 turned out to be 2.3 nM with MEIS1 gene expression [4] and 6 nM in the test with MEIS1 gene expression [1]. The values for the IC50 (in test [2]; in test [3] (168 h); in the test on KG-1a (wild-type MLL)) were 2.2 nM, 10 nM and 3.6 µM, respectively.

In the case of `COCCN(C)CCCC(C(C)C)N1CC(c2cc(-c3ccc(F)cc3C(=O)N3CCOCC3C)c3cnn(C)c3c2)C1` (stereo not shown) [Example 185], in the test with MEIS1 gene expression [1], the 50% effective concentration (EC50) was 55 nM. Moreover, the IC50 in test [2] amounted to 26 nM; in test [3] (168 h), 70 nM; in the test on KG-1a (wild-type MLL), 20 µM.

For `COCCN(C)CCC[C@H](C(C)C)N1CC(c2cc(-c3ccc(F)cc3C(=O)N3[C@H](C)COC[C@H]3C)c3cnn(C)c3c2)C1` [Example 186-2, [(4R)-4-[3-(4-{2-[(3R,5R)-3,5-dimethylmorpholin-4-carbonyl]-4-fluorophenyl}-1-methyl-1H-indazol-6-yl)azacyclobutan-1-yl]-5-methylhexyl](2-methoxyethyl)methylamine], the concentration for a half-maximal effect (EC50) in the test with MEIS1 gene expression [1] was 3.8 nM. Further, the IC50 in test [2] was found to be 4.3 nM; in test [3] (168 h), 28 nM; in the test on KG-1a (wild-type MLL) it was 20 µM.

`CCS(=O)(=O)N[C@H]1CC[C@H](CN2CC(c3cc(-c4ccc(F)cc4C(=O)N4[C@H](C)COC[C@H]4C)c4c(F)nc(C)n4c3)C2)CC1` [Example 197, N-[(1r,4r)-4-{[3-(8-{2-[(3R,5R)-3,5-dimethylmorpholin-4-carbonyl]-4-fluorophenyl}-1-fluoro-3-methylimidazo[1,5-a]pyridin-6-yl)azacyclobutan-1-yl]methyl}cyclohexyl]ethan-1-sulfonamide]: in the test on MEIS1 gene expression [1], the EC50 is 14 nM. Also, the IC50 in test [2] was found to be 4 nM; in test [3] (MOLM-13, 168 h) it was 10.2 nM; in the test with KG-1a (wild-type MLL), 20 µM.

In the case of `CO[C@@H]1CCN(CCC[C@H](C(C)C)N2CC(c3cc(-c4ccc(F)cc4C(=O)N4CCOC[C@H]4C)c4c(F)nc(C)n4c3)C2)C1` [Example 202], in the test on MEIS1 gene expression [1], the EC50 turned out to be 3.5 nM. Besides, the results for the half-maximal inhibitory concentration (IC50) (in test [2]; in test [3] (168 h); in the test with KG-1a (wild-type MLL)) were 1.8 nM, 11 nM and 20 µM, respectively.

In the case of `CC(=O)N1CCC(CN2CC(c3cc(-c4ccc(F)cc4C(=O)N4[C@H](C)COC[C@H]4C)c4c(F)nc(C)n4c3)C2)CC1` [Example 205], the EC50 in the test on MEIS1 gene expression [1] was found to be 18 nM. Further, the IC50 amounted to 7.4 nM in test [2], 19 nM in test [3] (168 h) and 20 µM in the test with KG-1a (wild-type MLL).

Consider `Cc1nc(F)c2c(-c3ccc(F)cc3C(=O)N3[C@H](C)COC[C@H]3C)cc(C3CN(CC4CCOCC4)C3)cn12` [Example 208], for which the EC50 in the test on MEIS1 gene expression [1] amounted to 23 nM. For the same compound, the half-maximal inhibitory concentration (IC50) in test [2] was found to be 6.6 nM; in test [3] (168 h), 9.6 nM; in the test with KG-1a (wild-type MLL), 20 µM.

With `CCNC(=O)N1CCC(CN2CC(c3cc(-c4ccc(F)cc4C(=O)N4CCOC[C@H]4C)c4c(F)nc(C)n4c3)C2)CC1` [Example 261], in the test with MEIS1 gene expression [1], the EC50 was 8.5 nM. Also, the IC50 in test [2] was 9.6 nM; in test [3] (168 h) it was 23 nM; in the test on KG-1a (wild-type MLL) it was 20 µM.

For `CNC(=O)N1CCC([C@H](C)N2CC(c3cc(-c4ccc(F)cc4C(=O)N4CCOC[C@H]4C)c4c(F)nc(C)n4c3)C2)CC1` [Example 264-2], the EC50 in the test on MEIS1 gene expression [1] is 18 nM. Also, the results for the IC50 (in test [2]; in test [3] (168 h); with KG-1a (wild-type MLL)) were 4.7 nM, 12 nM and 20 µM, respectively.

Regarding `Cc1nc(F)c2c(-c3ccc(F)cc3C(=O)N3CCOCC3C)cc(C3CN(C(CCCN4CCCC(O)C4)C(C)C)C3)cn12` (stereo not shown) [Example 292], the EC50 in the test on MEIS1 gene expression [1] stood at 15 nM. The IC50 in test [2] was 2.4 nM; in test [3] (168 h) it was 13 nM; in the test with KG-1a (wild-type MLL), 20 µM.

Turning to `CO[C@@H]1CCCN(CCC[C@H](C(C)C)N2CC(c3cc(-c4ccc(F)cc4C(=O)N4CCOC[C@H]4C)c4c(F)nc(C)n4c3)C2)C1` [Example 305], in the test on MEIS1 gene expression [1], the EC50 turned out to be 7.6 nM. In addition, the values for the IC50 (in test [2]; in test [3] (168 h); in the test on KG-1a (wild-type MLL)) were 3.4 nM, 12 nM and 20 µM, respectively.

Regarding `CO[C@H]1CCCN(CCC[C@H](C(C)C)N2CC(c3cc(-c4ccc(F)cc4C(=O)N4CCOC[C@H]4C)c4c(F)nc(C)n4c3)C2)C1` [Example 306], the EC50 with MEIS1 gene expression [1] came to 4.6 nM. The figures for the IC50 (in test [2]; in test [3] (168 h); in the test on KG-1a (wild-type MLL)) were 2.8 nM, 7.7 nM and 20 µM, respectively.

Consider `Cc1nc(F)c2c(-c3ccc(F)cc3C(=O)N3CCOC[C@H]3C)cc(C3CN([C@H](CCCN4CCN(C5CC5)CC4)C(C)C)C3)cn12` [Example 350], for which the EC50 with MEIS1 gene expression [4] was 4 nM; in the test with MEIS1 gene expression [1], 6.8 nM. In addition, the IC50 was 4.6 nM in test [3] (168 h) and 12 µM in the test on KG-1a (wild-type MLL).

Turning to `Cc1nc(F)c2c(-c3ccc(F)cc3C(=O)N3CCOC[C@H]3C)cc(C3CN(C(CC[C@@H]4COCCN4)C(C)C)C3)cn12` (stereo partly drawn) [Example 371, (3R)-4-{5-fluoro-2-[1-fluoro-3-methyl-6-(1-{4-methyl-1-[(3R)-morpholin-3-yl]pentan-3-yl}azacyclobutan-3-yl)imidazo[1,5-a]pyridin-8-yl]benzoyl}-3-methylmorpholine], the 50% effective concentration (EC50) in the test on MEIS1 gene expression [4] is 1.1 nM; in the test with MEIS1 gene expression [1], 3 nM. The figures for the IC50 (in test [3] (168 h); in the test on KG-1a (wild-type MLL)) were 5.3 nM and more than 20 µM, respectively.
